Laboratory results reported in patent US4772594A, “Prodrug compounds, process for the preparation thereof and sustained release preparation comprising the same” (Fujisawa Pharmaceutical Co., Ltd., priority 1986, dated 1988).

Columns and labels:
[1] = Conversion Test 1: conversion half life of prodrug to parent compound in rat serum; format: in vitro ADME; conditions: rat serum, 37° C.
Method: (§1) Chloroform solution containing egg yolk lecithin (84 μmole), egg yolk sphingomyelin (36 μmole) and Mitomycin C prodrug ( 6 μmole) obtained in the below-mentioned Example 1 or 2 was poured into a round-bottom flask and evaporated to dryness.
(§2) To this were added sodium cholate (258 mg) and pH 7.4 phosphate buffered saline (hereinafter referred to as PBS) (4.8 ml) and the mixture was agitated to give a clear purple solution.
(§3) Sodium cholate was removed from the solution by the Lipoprep dialyzer (detergent removal apparatus prepared by Diachema Co., Ltd.) to give a liposome suspension containing Mitomycin C prodrug.
(§4) Chloroform solution containing egg yolk lecithin (70 μmole), egg yolk sphingomyelin (30 μmole) and FR900482 substance prodrug (Example 6)(5 μmole) was poured into a round-bottom flask and a liposome suspension containing FR900482 substance prodrug was obtained in a similar manner to that of above-mentioned method.
Above-mentioned two liposome suspensions containing Mitomycin C prodrug were each diluted with PBS at 2.5 times.
The liposome suspension containing FR900482 substance prodrug was diluted with PBS to obtain the drug concentration of 0.5 μmole/ml and was filtered through millex-GV (trademark: prepared by Millipore Co., Ltd.) filter (0.22μ).
(§5) After the liposome suspension and ethanol solution of each prodrug (0.5 ml) were added to mouse, rat or human serum (4.5 ml, 37° C.), samples were taken periodically and the concentration of each prodrug was determined by high-performance liquid chromotography.
(§6) Conversion half lives (t 1/2) of each prodrug to each parent compound in various kinds of serum were calculated by the concentration of each prodrug remaining at each time.

[2] = Conversion Test 1: conversion half life of prodrug to parent compound in mouse serum; format: in vitro ADME; conditions: 37° C.
Method: as §1, §2, §3
as §4, with “method. […]” for “method.”
as §5, §6

[3] = Conversion Test 1: conversion half life of prodrug to parent compound in human serum; format: in vitro ADME; conditions: 37° C.
Method: as §1, §2, §3
as §4, with “method. […]” for “method.”
as §5, §6

[4] = system: human lung adenocarcinoma A 549; assay: Anti tumor test 2: growth inhibition of A 549 under the subrenal capsule of mice; format: in vivo; conditions: Day 14, i.v. liposome preparation; for Inhibition: tumor growth
Description: (§7) The mixture of chloroform and methanol (3:1 V/V) containing egg yolk lecithin (245 μmole), egg yolk sphingomyelin (105 μmole) and Cyarabine prodrug (Example 8) (87.5 and 157.5 μmole respectively) was taken in a round-bottom flask. Liposome suspensions containing Cytarabine prodrug (Concentration: 10 and 18 μmole/ml respectively) were obtained in a similar manner to that of the above-mentioned method.
A fragment of human lung adenocarcinoma A 549 was implanted under the subrenal capsule of BDF female mouse (8 weeks). Cytarabine aqueous solution (dose: 1000 μmole/kg) and above-mentioned liposome suspension containing Cytarabine prodrug (dose: 100 and 180 μmole/kg respectively)were administered intravenously to the mice at a volume of 0.2 ml per mouse body weight 20 g at Day 1, 5 and 9 after implantation. The tumor volume at Day 14 after implantation was measured and the growth inhibition percent was calculated. (In this test, to clarify the anti tumor effect of each preparation, 17-allyl-1,14-dihydroxy-12-[2-(4-hydroxy-3- methoxycyclohexyl)-1-methylvinyl]-23,25-dimethoxy-13,19,21,27-tetramethyl- 11,28-dioxa-4-azatricyclo[22.3.1.0^4,9 ]octacos-18-ene-2,3,10,16-tetraone as immunosuppressive substance(dose: 32 mg/kg) was administered subcutaneously at Day 1, 2, 5, 7, 9 and 12 after implanation.)

[5] = system: Mouse leukemia cell L 1210; assay: Anti tumor test 1: survival of mice implanted with L 1210 leukemia; format: in vivo; conditions: i.v. liposome suspension; for T/C: mean survival time vs control
Description: as §7, with “(8:2” for “(3:1”, “Cytarabine” for “Cyarabine”, “262.5” for “157.5”, “roundbottom” for “round-bottom”, “20” for “18”, “method. Mouse leukemia cell L 1210 (10^5 cells) were implanted intraperitoneally into BDF female mice (7 weeks).” for “method.”
After 24 hours after inoculation, Cytarabine aqueous solution (dose: 1000 and 3000 μmole/kg respectively), above-mentioned liposome suspension containing Cytarabine prodrug (dose: 100 and 300 μmole/kg respectively)and aqueous solution of N^4 -behenoyl-1-β-arabinofuranosylcytosine (hereinafter referred to as BHAC) which is a known compound as Cytarabine prodrug and is shown by the following structure (dose: 100 and 300 μmole/kg respectively) were administered intravenously to the mouse at a volume of 0.2 ml or 0.3 ml (in case the administration at the dose of 300 μmole/kg of Cytarabine prodrug) per 20 g of mouse body weight. After the treatment, survival of the mice was recorded. [drawing 9]

[6] = in vitro; format: in vitro ADME; conditions: rat, serum
Method: The mixture of chloroform and methanol (8:2 v/v) mixture containing egg yolk lecithin (70 μmole), egg yolk sphingomyelin (30 μmole) and Cytarabine prodrug (30 μmole) obtained in the below-mentioned Example 8 was poured into a round-bottom flask and evaporated to dryness. To this were added sodium cholate (53.8 mg) and PBS (5.0 ml) and the mixture was agitated to give a clear colorless solution.
Sodium cholate was removed from the solution by the Lipoprep dialyzer to give liposome suspension containing Cytarabine prodrug.
The liposome suspension was diluted with PBS to obtain the drug concentration of 5 μmole/ml and was filtered successively through polycarbonate membranes(prepared by Nuclepore Co., Ltd.) (0.2, 0.1 and 0.08μ respectively) and then filtered through a millex-GV filter (0.22 μ).
After the above-mentioned liposome suspension and ethanol solution of Cytarabine prodrug (0.08 ml) were added to rat serum (4.0 ml, 37° C.), samples were taken periodically and the concentration of Cytarabine prodrug was determined by high-performance liquid chromatography.
Conversion half lives (t 1/2) of the prodrug to the parent compound were calculated by the concentration of prodrug remaining at each time.

Compound	Half life (t 1/2) ([1]; ethanol solution) [h]	Half life (t 1/2) ([1]; liposome suspension) [h]	Half life (t 1/2) ([2]; ethanol solution) [h]	Half life (t 1/2) ([2]; liposome suspension) [h]	Half life (t 1/2) ([3]; ethanol solution) [h]	Half life (t 1/2) ([3]; liposome suspension) [h]	Tumor volume mean value ± standard error ([4]; 100 μmole/kg at Day 1, 5, 9) [mm^3]	Tumor volume mean value ± standard error ([4]; 180 μmole/kg at Day 1, 5, 9) [mm^3]	Inhibition ([4]; 100 μmole/kg at Day 1, 5, 9) [%]	Inhibition ([4]; 180 μmole/kg at Day 1, 5, 9) [%]	Mean survival time ([5]; 100 μmole/kg) [days]	Mean survival time ([5]; 300 μmole/kg) [days]	T/C ([5]; 100 μmole/kg) [%]	T/C ([5]; 300 μmole/kg) [%]	Half life (t 1/2) [6] [h]	half-life ([6]; Half life (t 1/2)) [h]
11-[N-(cholest-5-en-3β-oxycarbonyl)glycyl]-4-formyl-6,9-dihydroxy-14- oxa-1,11-diazatetracyclo[7.4.1.0^2,7.0^10,12 ]tetradeca-2,4,6-triene-8-ylmethylcarbamate [Example 6]	4.0	10.3	2.7	4.6	3.3	9.9	–	–	–	–	–	–	–	–	–	–
CC(C)CCC[C@@H](C)[C@H]1CC[C@H]2[C@@H]3CC=C4C[C@@H](OC(=O)NCC(=O)Nc5ccn([C@@H]6O[C@H](CO)[C@@H](O)[C@@H]6O)c(=O)n5)CC[C@]4(C)[C@H]3CC[C@]12C [Example 8, N^4-[N-(cholest-5-en-3β-oxycarbonyl)glycyl]-1-β-D-arabinofuranosylcytosine]	–	–	–	–	–	–	13.0 ± 3.0	5.5 ± 1.6	54.1	80.4	16.3 ± 0.3	33.3 ± 13.4	181	370	37.3	22.6
